Holding throughout (experiment): Herbicidal effect by foliage and soil treatment
Format in all cases: in vivo
Common to all, as to details: 10 g ai/10a, evaluated after 14 days

In experiment [1] the test system is common chickweed (Stellaria media). Summed up: (§1)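 Potted seedlings at cotyledon-to-bifoliate stage were sprayed with compound in Tween 20/water at a predetermined rate and grown in a greenhouse at 19 to 25° C. Growth was rated against untreated plants after 14 days.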
The test system of experiment [2] is wild chamomile (Matricaria chamomilla). An outline of the steps:
as §1

The test system of experiment [3] is cleavers (Galium aparine). Summed up:
as §1

The test system of experiment [4] is ivyleafspeedwell (Veronica hederaefolia). An outline of the steps:
as §1

In experiment [5] the test system is common blackjack (Bidens pilosa). Summed up: as §1
Experiment [6] has as its system kediock (Sinapis arvensis). Summed up:
as §1

The subject of experiment [7] is redroot pigweed (Amaranthus retroflexus). An outline of the steps:
as §1

Experiment [8] has as its system black nightshade (Solanum nigrum). Summed up: as §1
Experiment [9] deals with velvetleaf (Abutilon theophrasti). An outline of the steps: as §1
In experiment [10] the test system is field bindweed (Convolvulus arvensis). Summed up: as §1
The test system of experiment [11] is sicklepod (Cassia obtusifolia). Summed up: as §1

Five compounds from patent publication US6339045B1, “N-(unsubstituted or substituted)-4-substituted-6-(unsubstituted or substituted)phenoxy-2-pyridinecarboxamides or thiocarboxamides, processes for producing the same, and herbicides” (Kureha Kagaku Kogyo Kabushiki Kaisha, priority 1995, dated 2002) can be followed below.

The structures appear in SMILES notation.

For `CC(C)NC(=O)c1cc(N(C)C)cc(Oc2cccc(C(F)(F)F)c2)n1` [Compound I-57, N-(i-propyl)-4-dimethylamino-6-{3-(trifluoromethyl)phenoxy}-2-pyridine carboxamide], in [1], the “herbicidal activity rating, SM (Stellaria media)” value (“herbicidal activity rating, SM” for short) is 4 (percentage of weeds killed was not less than 60% and less than 80%). The “herbicidal activity rating, MC (Matricaria chamomilla)” value (“herbicidal activity rating, MC” for short) in experiment [2] is 3 (percentage of weeds killed was not less than 40% and less than 60%). Also, the “herbicidal activity rating, GA (Galium aparine)” value (“herbicidal activity rating, GA” for short) in experiment [3] is on record as 5 (percentage of weeds killed was not less than 80%). Further, the “herbicidal activity rating, VH (Veronica hederaefolia)” value (“herbicidal activity rating, VH” for short) in [4] was 5 (percentage of weeds killed was not less than 80%). Moreover, the “herbicidal activity rating, BP (Bidens pilosa)” value (“herbicidal activity rating, BP” for short) in experiment [5] is given as 5 (percentage of weeds killed was not less than 80%). The “herbicidal activity rating, SA (Sinapis arvensis)” value (“herbicidal activity rating, SA” for short) in experiment [6] is listed as 5 (percentage of weeds killed was not less than 80%). For the same compound, the “herbicidal activity rating, AR (Amaranthus retroflexus)” value (“herbicidal activity rating, AR” for short) in experiment [7] was 5 (percentage of weeds killed was not less than 80%). Also, in experiment [8], the “herbicidal activity rating, SN (Solanum nigrum)” value (“herbicidal activity rating, SN” for short) is given as 5 (percentage of weeds killed was not less than 80%). The “herbicidal activity rating, AT (Abutilon theophrasti)” value in experiment [9] was 4 (percentage of weeds killed was not less than 60% and less than 80%). Besides, the “herbicidal activity rating, CA (Convolvulus arvensis)” value (“herbicidal activity rating, CA” for short) in experiment [10] is 4 (percentage of weeds killed was not less than 60% and less than 80%). Also, the “herbicidal activity rating, CO (Cassia obtusifolia)” value (“herbicidal activity rating, CO” for short) in experiment [11] was 5 (percentage of weeds killed was not less than 80%).
Take `CC(C)NC(=O)c1cc(N(C)Cc2ccccc2)cc(Oc2cccc(C(F)(F)F)c2)n1` [Compound I-58, N-(i-propyl)-4-{methyl(phenylmethyl)amino}-6-{3-(trifluoromethyl)phenoxy}-2-pyridine carboxamide]: the “herbicidal activity rating, SM” value in experiment [1] is 4 (percentage of weeds killed was not less than 60% and less than 80%). In addition, in [2], the “herbicidal activity rating, MC” value is 3 (percentage of weeds killed was not less than 40% and less than 60%). Further, the “herbicidal activity rating, GA” value in [3] is recorded as 5 (percentage of weeds killed was not less than 80%). In experiment [4], the “herbicidal activity rating, VH” value is 5 (percentage of weeds killed was not less than 80%). Moreover, the “herbicidal activity rating, BP” value in experiment [5] was 2 (percentage of weeds killed was not less than 20% and less than 40%). The “herbicidal activity rating, SA” value in experiment [6] was 5 (percentage of weeds killed was not less than 80%). Besides, the “herbicidal activity rating, AR” value in experiment [7] was 5 (percentage of weeds killed was not less than 80%). The “herbicidal activity rating, SN” value in experiment [8] is 5 (percentage of weeds killed was not less than 80%). Besides, the “herbicidal activity rating, AT (Abutilon theophrasti)” value in experiment [9] is 4 (percentage of weeds killed was not less than 60% and less than 80%). Besides, the “herbicidal activity rating, CA” value in [10] was 5 (percentage of weeds killed was not less than 80%). For the same compound, the “herbicidal activity rating, CO” value in experiment [11] is on record as 5 (percentage of weeds killed was not less than 80%).
Take `CCOc1cc(Oc2cccc(C(F)(F)F)c2)nc(C(=O)NC(C)C)c1` [Compound I-59]: the “herbicidal activity rating, SM” value in [1] is listed as 5 (percentage of weeds killed was not less than 80%). In addition, the “herbicidal activity rating, MC” value in experiment [2] was 4 (percentage of weeds killed was not less than 60% and less than 80%). The “herbicidal activity rating, GA” value in [3] is on record as 5 (percentage of weeds killed was not less than 80%). Also, in experiment [4], the “herbicidal activity rating, VH” value is given as 5 (percentage of weeds killed was not less than 80%). For the same compound, in experiment [5], the “herbicidal activity rating, BP” value was 3 (percentage of weeds killed was not less than 40% and less than 60%). In addition, the “herbicidal activity rating, SA” value in experiment [6] is 5 (percentage of weeds killed was not less than 80%). Besides, the “herbicidal activity rating, AR” value in experiment [7] is 5 (percentage of weeds killed was not less than 80%). Further, the “herbicidal activity rating, SN” value in [8] is on record as 5 (percentage of weeds killed was not less than 80%). In addition, the “herbicidal activity rating, AT (Abutilon theophrasti)” value in experiment [9] is 4 (percentage of weeds killed was not less than 60% and less than 80%). The “herbicidal activity rating, CA” value in [10] is 4 (percentage of weeds killed was not less than 60% and less than 80%). Besides, in experiment [11], the “herbicidal activity rating, CO” value is listed as 5 (percentage of weeds killed was not less than 80%).
As for `COCCNC(=O)c1cc(OC)cc(Oc2cccc(C(F)(F)F)c2)n1` [Compound I-61], the “herbicidal activity rating, SM” value in experiment [1] is reported as 5 (percentage of weeds killed was not less than 80%). In addition, the “herbicidal activity rating, MC” value in experiment [2] is 5 (percentage of weeds killed was not less than 80%). For the same compound, in experiment [3], the “herbicidal activity rating, GA” value is given as 5 (percentage of weeds killed was not less than 80%). Moreover, the “herbicidal activity rating, VH” value in experiment [4] is recorded as 5 (percentage of weeds killed was not less than 80%). In experiment [5], the “herbicidal activity rating, BP” value is 2 (percentage of weeds killed was not less than 20% and less than 40%). Besides, in experiment [6], the “herbicidal activity rating, SA” value is recorded as 5 (percentage of weeds killed was not less than 80%). Also, the “herbicidal activity rating, AR” value in experiment [7] is recorded as 5 (percentage of weeds killed was not less than 80%). Moreover, the “herbicidal activity rating, SN” value in [8] was 5 (percentage of weeds killed was not less than 80%). Further, in [9], the “herbicidal activity rating, AT (Abutilon theophrasti)” value was 4 (percentage of weeds killed was not less than 60% and less than 80%). Moreover, in experiment [10], the “herbicidal activity rating, CA” value was 3 (percentage of weeds killed was not less than 40% and less than 60%). Also, the “herbicidal activity rating, CO” value in experiment [11] is listed as 5 (percentage of weeds killed was not less than 80%).
For the compound `COc1cc(Oc2cccc(C(F)(F)F)c2)nc(C(=O)NCCSC)c1` [Compound I-62], the “herbicidal activity rating, SM” value in [1] is recorded as 5 (percentage of weeds killed was not less than 80%). For the same compound, in experiment [2], the “herbicidal activity rating, MC” value was 4 (percentage of weeds killed was not less than 60% and less than 80%). In addition, the “herbicidal activity rating, GA” value in [3] is listed as 5 (percentage of weeds killed was not less than 80%). Further, the “herbicidal activity rating, VH” value in [4] is 5 (percentage of weeds killed was not less than 80%). The “herbicidal activity rating, BP” value in experiment [5] was 4 (percentage of weeds killed was not less than 60% and less than 80%). Also, the “herbicidal activity rating, SA” value in [6] is 5 (percentage of weeds killed was not less than 80%). Moreover, in [7], the “herbicidal activity rating, AR” value is recorded as 5 (percentage of weeds killed was not less than 80%). Besides, the “herbicidal activity rating, SN” value in experiment [8] was 5 (percentage of weeds killed was not less than 80%). For the same compound, the “herbicidal activity rating, AT (Abutilon theophrasti)” value in experiment [9] was 3 (percentage of weeds killed was not less than 40% and less than 60%). Further, the “herbicidal activity rating, CA” value in [10] is 4 (percentage of weeds killed was not less than 60% and less than 80%). In experiment [11], the “herbicidal activity rating, CO” value was 5 (percentage of weeds killed was not less than 80%).
